These results are taken from patent publication US12172983B2, “EGFR inhibitors” (Blueprint Medicines Corporation, priority 2019, dated 2024).

One assay has as its target T1, EGFR (L858R T790M C797S) (Homo sapiens, UniProt P00533, C797S/L858R/T790M).
T1 construct: purchased SignalChem E10-122VG
In words: Biochemical EGFR inhibition assay (Caliper mobility shift), EGFR LRTMCS mutant. The note with it: inhibitory activity against EGFR LRTMCS mutant; apparent IC50; read-out: Ext Enz LRTMCS. An outline of the steps: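 Each enzyme was allowed to phosphorylate 10–20% of its peptide at 25° C. before EDTA (35 mM) quench. Separated substrate and product peaks were measured by mobility shift, giving apparent IC50 values.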

Assay [1] has as its system phosphorylation of EGFR (Tyr1068) in NCI-H1975 cell line that harbors the EGFR L858R T790M mutations. In words: NCI-H1975 pEGFR AlphaLISA assay. It is filed as cell-based. The note with it: 4-5 hours incubation, read-out: Ext pEGFR H1975. An outline of the steps:
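NCI-H1975 cells (EGFR L858R/T790M) seeded overnight, then treated with compound for 4-5 h at 37 °C/5% CO2. After lysis, p-EGFR (Tyr1068) quantified by AlphaLISA SureFire Ultra with acceptor then donor beads; IC50 fitted from percent inhibition versus log concentration.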

The mark [2] stands for this setting: Homo sapiens, NCI-H1975, inhibition of phosphorylation of mutant EGFR in NCI-H1975 cells.
The mark [3] stands for this setting: inhibition of phosphorylation of mutant EGFR in NCI-H1975 cells.

The structures appear in SMILES notation. Like-named read-outs stand apart in the source and are kept apart here.

T1 sequence (P00533 25-1210 T790M/C797S/L858R): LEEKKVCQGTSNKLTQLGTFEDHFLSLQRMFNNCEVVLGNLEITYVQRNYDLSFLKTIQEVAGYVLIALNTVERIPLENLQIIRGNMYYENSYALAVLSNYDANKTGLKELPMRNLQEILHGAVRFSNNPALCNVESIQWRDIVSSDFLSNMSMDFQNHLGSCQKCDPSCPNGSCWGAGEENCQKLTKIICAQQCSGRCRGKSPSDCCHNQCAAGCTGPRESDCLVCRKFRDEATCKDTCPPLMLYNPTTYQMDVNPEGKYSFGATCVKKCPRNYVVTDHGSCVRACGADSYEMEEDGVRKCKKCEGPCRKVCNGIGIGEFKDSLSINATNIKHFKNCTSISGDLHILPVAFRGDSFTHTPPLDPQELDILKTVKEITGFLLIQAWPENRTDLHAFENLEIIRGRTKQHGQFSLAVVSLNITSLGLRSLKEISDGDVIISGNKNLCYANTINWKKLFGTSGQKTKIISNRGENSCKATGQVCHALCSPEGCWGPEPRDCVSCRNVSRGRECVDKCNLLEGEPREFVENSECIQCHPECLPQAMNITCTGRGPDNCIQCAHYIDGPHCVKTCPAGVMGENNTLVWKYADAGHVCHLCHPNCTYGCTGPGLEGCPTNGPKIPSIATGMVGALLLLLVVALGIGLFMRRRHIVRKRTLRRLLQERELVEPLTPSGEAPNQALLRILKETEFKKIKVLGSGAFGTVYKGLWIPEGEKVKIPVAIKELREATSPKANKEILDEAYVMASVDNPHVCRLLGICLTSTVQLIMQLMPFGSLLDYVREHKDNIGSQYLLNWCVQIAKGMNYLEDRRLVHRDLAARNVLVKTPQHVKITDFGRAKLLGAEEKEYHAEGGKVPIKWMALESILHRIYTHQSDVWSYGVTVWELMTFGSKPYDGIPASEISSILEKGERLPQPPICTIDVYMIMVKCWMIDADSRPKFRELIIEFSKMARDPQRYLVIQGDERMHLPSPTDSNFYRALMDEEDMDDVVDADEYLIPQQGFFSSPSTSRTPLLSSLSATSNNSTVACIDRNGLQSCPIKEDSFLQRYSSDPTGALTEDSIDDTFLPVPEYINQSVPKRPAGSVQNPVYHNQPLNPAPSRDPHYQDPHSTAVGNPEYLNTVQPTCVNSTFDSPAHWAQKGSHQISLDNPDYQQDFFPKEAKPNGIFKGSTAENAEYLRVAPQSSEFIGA

Regarding `C[C@@H]1[C@@H](CS(C)(=O)=O)CN1c1cccc2cc(Nc3ccnc(N4C[C@H](F)[C@H](O)C(C)(C)C4)n3)ncc12` (single isomer, unassigned) [Compound 30, (4S,5R)-5-fluoro-1-[4-({8-[(2R,3S)-3-(methanesulfonylmethyl)-2-methylazetidin-1-yl]isoquinolin-3-yl}amino)pyrimidin-2-yl]-3,3-dimethylpiperidin-4-ol or (4R,5S)-5-fluoro-1-[4-({8-[(2R,3S)-3-(methanesulfonylmethyl)-2-methylazetidin-1-yl]isoquinolin-3-yl}amino)pyrimidin-2-yl]-3,3-dimethylpiperidin-4-ol], the IC50 at EGFR (L858R T790M C797S) was no more than 15 nM; in assay [1] (setting [2]), no more than 10 nM.
In the same order, the values of `CCc1cnc(N2CC(CS(C)(=O)=O)C2)c2cnc(Nc3ccnc(N4CC[C@@H](O)[C@@](C)(F)C4)n3)cc12` (single isomer, unassigned) [Compound 31] are no more than 15 nM and 10.1 to 20 nM.
Take `COc1ccc(N2CC(CS(C)(=O)=O)C2)c2cnc(Nc3ccnc(N4CC[C@@H](O)[C@@](C)(F)C4)n3)cc12` (single isomer, unassigned) [Compound 32]: the IC50 on EGFR (L858R T790M C797S) is no more than 15 nM; in assay [1] (setting [2]), 20.1 to 30 nM.
For the compound `C[C@@H]1[C@@H](CS(C)(=O)=O)CN1c1ccc(F)c2cc(Nc3ccnc(N4CC[C@@H](O)[C@@](C)(F)C4)n3)ncc12` (single isomer, unassigned) [Compound 33], the IC50 at EGFR (L858R T790M C797S) was no more than 15 nM; in assay [1] (setting [2]) it was no more than 10 nM.
For `CC1(C)CN(c2nccc(Nc3cc4cccc(N5CC(CS(C)(=O)=O)C5)c4cn3)n2)CC(F)(F)[C@@H]1O` (single isomer, unassigned) [Compound 34, (4R)-3,3-difluoro-1-[4-({8-[3-(methanesulfonylmethyl)azetidin-1-yl]isoquinolin-3-yl}amino)pyrimidin-2-yl]-5,5-dimethylpiperidin-4-ol or (4S)-3,3-difluoro-1-[4-({8-[3-(methanesulfonylmethyl)azetidin-1-yl]isoquinolin-3-yl}amino)pyrimidin-2-yl]-5,5-dimethylpiperidin-4-ol], the IC50 is no more than 15 nM on EGFR (L858R T790M C797S) and 10.1 to 20 nM in assay [1] (setting [2]).
In the same order, the values of `C[C@@H]1[C@@H](CS(C)(=O)=O)CN1c1cccc2cc(Nc3ccnc(N4C[C@@H](F)[C@@H](O)[C@](C)(F)C4)n3)ncc12` (single isomer, unassigned) [Compound 35, (3R,4R,5R)-3,5-difluoro-1-[4-({8-[(2R,3S)-3-(methanesulfonylmethyl)-2-methylazetidin-1-yl]isoquinolin-3-yl}amino)pyrimidin-2-yl]-3-methylpiperidin-4-ol or (3S,4S,5S)-3,5-difluoro-1-[4-({8-[(2R,3S)-3-(methanesulfonylmethyl)-2-methylazetidin-1-yl]isoquinolin-3-yl}amino)pyrimidin-2-yl]-3-methylpiperidin-4-ol] are no more than 15 nM and 30.1 to 50 nM.
On to `CC(C)c1ccc(N2C[C@H](CS(C)(=O)=O)[C@H]2C)c2cnc(Nc3ccnc(N4CC[C@H]5COC[C@H]54)n3)cc12` (single isomer, unassigned) [Compound 40], for which the IC50 on EGFR (L858R T790M C797S) was no more than 15 nM; in assay [1] (setting [2]), no more than 10 nM.
As to `CC(C)c1ccc(N2C[C@@H](CS(C)(=O)=O)[C@@H]2C)c2cnc(Nc3ccnc(N4CC[C@@H]5C[C@H]4CO5)n3)cc12` (single isomer, unassigned) [Compound 41, N-(2-((1S,5R)-6-oxa-2-azabicyclo[3.2.1]octan-2-yl)pyrimidin-4-yl)-5-isopropyl-8-((2S,3R)-2-methyl-3-((methylsulfonyl)methyl)azetidin-1-yl)isoquinolin-3-amine or N-(2-((1R,5S)-6-oxa-2-azabicyclo[3.2.1]octan-2-yl)pyrimidin-4-yl)-5-isopropyl-8-((2S,3R)-2-methyl-3-((methylsulfonyl)methyl)azetidin-1-yl)isoquinolin-3-amine], the IC50 on EGFR (L858R T790M C797S) was no more than 15 nM; in assay [1] (setting [2]), no more than 10 nM.
For the compound `CC(C)c1ccc(N2CC(CS(C)(=O)=O)C2)c2cnc(Nc3ccnc(N4CC[C@](C)(O)C[C@@H]4C)n3)cc12` (single isomer, unassigned) [Compound 44, (2R,4R)-1-[4-({8-[3-(methanesulfonylmethyl)azetidin-1-yl]-5-(propan-2-yl)isoquinolin-3-yl}amino)pyrimidin-2-yl]-2,4-dimethylpiperidin-4-ol or (2S,4S)-1-[4-({8-[3-(methanesulfonylmethyl)azetidin-1-yl]-5-(propan-2-yl)isoquinolin-3-yl}amino)pyrimidin-2-yl]-2,4-dimethylpiperidin-4-ol], the IC50 was no more than 15 nM at EGFR (L858R T790M C797S) and no more than 10 nM in assay [1] (setting [2]).
Take `CC(C)c1ccc(N2CC(CS(C)(=O)=O)C2)c2cnc(Nc3ccnc(N4CC[C@](C)(O)C[C@@H]4C)n3)cc12` (single isomer, unassigned) [Compound 45, (2S,4S)-1-[4-({8-[3-(methanesulfonylmethyl)azetidin-1-yl]-5-(propan-2-yl)isoquinolin-3-yl}amino)pyrimidin-2-yl]-2,4-dimethylpiperidin-4-ol or (2R,4R)-1-[4-({8-[3-(methanesulfonylmethyl)azetidin-1-yl]-5-(propan-2-yl)isoquinolin-3-yl}amino)pyrimidin-2-yl]-2,4-dimethylpiperidin-4-ol]: the IC50 at EGFR (L858R T790M C797S) is no more than 15 nM; in assay [1] (setting [3]) it was 10.1 to 20 nM.
In the case of `CC(C)c1ccc(N2C[C@H](CS(C)(=O)=O)[C@H]2C)c2cnc(Nc3ccnc(N4CCC(C)(O)CC4)n3)cc12` (single isomer, unassigned) [Compound 46], the IC50 on EGFR (L858R T790M C797S) was no more than 15 nM; in assay [1] (setting [2]), no more than 10 nM.
In the same order, the values of `CC(C)c1ccc(N2C[C@H](CS(C)(=O)=O)[C@H]2C)c2cnc(Nc3ccnc(N4CC[C@H](O)C[C@@H]4C)n3)cc12` (single isomer, unassigned) [Compound 47, (2S,4S)-1-[4-({8-[(2R,3S)-3-(methanesulfonylmethyl)-2-methylazetidin-1-yl]-5-(propan-2-yl)isoquinolin-3-yl}amino)pyrimidin-2-yl]-2-methylpiperidin-4-ol or (2R,4R)-1-[4-({8-[(2R,3S)-3-(methanesulfonylmethyl)-2-methylazetidin-1-yl]-5-(propan-2-yl)isoquinolin-3-yl}amino)pyrimidin-2-yl]-2-methylpiperidin-4-ol] are 15.1 to 20 nM and no more than 10 nM.
For the compound `CC(C)c1ccc(N2C[C@H](CS(C)(=O)=O)[C@H]2C)c2cnc(Nc3ccnc(N4CC[C@H](O)C[C@@H]4C)n3)cc12` (single isomer, unassigned) [Compound 48, (2R,4R)-1-[4-({8-[(2R,3S)-3-(methanesulfonylmethyl)-2-methylazetidin-1-yl]-5-(propan-2-yl)isoquinolin-3-yl}amino)pyrimidin-2-yl]-2-methylpiperidin-4-ol or (2S,4S)-1-[4-({8-[(2R,3S)-3-(methanesulfonylmethyl)-2-methylazetidin-1-yl]-5-(propan-2-yl)isoquinolin-3-yl}amino)pyrimidin-2-yl]-2-methylpiperidin-4-ol], the IC50 on EGFR (L858R T790M C797S) is no more than 15 nM; in assay [1] (setting [3]) it was no more than 10 nM.
